The test system of one test is HepG2 cells. The test is described as follows: In vitro cytotoxicity, HepG2 viability (resazurin). The test is classed as cell-based, human. The following applies: Homo sapiens, HepG2, 24 h, read-out: HepG2 IC50. As for the experimental part: The in vitro cytotoxicity of the compounds was evaluated by measuring the viability of HepG2 cells, a human liver cell line, following treatment in a dose–response manner, as previously described. […] The efficacy window was calculated as the ratio of IC50 in HepG2 cells to MIC50 against JE2.
To test cytotoxicity with compounds, the human liver cell line HepG2 (ATCC #HB-8065) was used for the assay. HepG2 was cultured in DMEM with 10% fetal bovine serum (FBS) in a 96-well microplate at 37 °C and 5% CO2. HepG2 cells were seeded at a final density of 5 × 10^4 cells/well, and DMEM-containing diluted compounds were added and incubated on the plates at 37 °C in 5% CO2 for 24 h. After that, resazurin (final concentration, 0.1 mg/mL) was added to each well and incubated on the plates at 37 °C in 5% CO2 for 2 h. To detect the fluorescence at 530 nm excitation and 590 nm emission, an Ensight multimode plate reader was used (Revvity, Waltham, MA, USA).
On the technique in general: Resazurin is reduced to fluorescent resorufin, in cell work by metabolically active cells.

Another test has as its system S. aureus USA300 JE2. The experiment in a line: Broth microdilution dose-response, S. aureus USA300 JE2 (MRSA). The test is classed as cell-based, Staphylococcus aureus. The source says:
(§1) The antistaphylococcal activities (MIC50) of the synthesized compounds were examined via a previously described broth microdilution method against two S. aureus strains: ATCC25923, a methicillin-sensitive reference strain, and JE2, a methicillin-resistant strain of the USA300 lineage (Figure 2, Table 1).
(§2) Staphylococcus aureus USA300, a methicillin-resistant strain, was obtained from the Nebraska Transposon Mutant Library. Staphylococcus aureus ATCC25923, a pan-drug-susceptible strain, was purchased from the American Type Culture Collection (ATCC) (Manassas, VA, USA). S. aureus strains were grown in Cation-Adjusted Mueller–Hinton broth (CAMHB) (Difco) at 37 °C. Bacterial strain stocks were stored in vials with 25% glycerol at −80 °C. For each experiment, overnight cultures were prepared by inoculating a frozen bacterial strain stock in 10 mL of CAMHB medium and incubating at 37 °C in a shaking incubator (180 rpm). For the preliminary screen and dose–response experiments, 100 µL of overnight culture was inoculated into 10 mL of fresh CAMHB and incubated for 3 h at 37 °C and 180 rpm.
(§3) Antibiotic susceptibility assay was tested according to modified Clinical and Laboratory Standards Institute (CLSI) laboratory guidelines for broth microdilution assays. S. aureus was cultured in CAMHB, and bacterial cells were prepared with an OD600 of 0.005. DRC plates were prepared by adding 40 µL of bacterial suspension to each well, where 10 µL of each compound had been dispensed for […] of two-fold serial dilutions starting at […]. After incubation of the plates at 37 °C for 18–24 h with 5% CO2, the growth of S. aureus was detected by measuring the OD600nm using an Ensight (Revvity) spectrometer (Revvity, Waltham, MA, USA).
(§4) Figure 2 In vitro antibacterial activities of 2-(amino)quinazolin-4(3H)-one derivatives. S. aureus ATCC25923 (blue) and USA300 JE (orange) strains were incubated with serial dilutions of 2-(amino)quinazolin-4(3H)-one derivatives (0.19–100 µM) for 18–24 h. The dose–responses were observed by measuring OD600nm. The plots were drawn from each group of strains with nonlinear curve fits.
A general note: Broth dilution looks for growth in wells or tubes with falling amounts of substance.

In test [1] the test system is S. aureus USA300 JE2 expressing GFP in H460 cells. The experiment in a line: microbe, parasite or virus in culture. The format is cell-based, Staphylococcus aureus. The following applies: for MIC50: Staphylococcus aureus, USA300, 24 h, read-out: H460 Assay MIC50 (MIC50 ex vivo). The text has this:
Staphylococcus aureus, including MRSA, can invade host cells and replicate intracellularly, which complicates treatment with current therapies. To evaluate the intracellular antibacterial activities of the selected compounds, the fifteen compounds tested for cytotoxicity were further assessed using a cell infection model based on H460 human lung epithelial cells, which mimic MRSA-mediated pneumonia. H460 cells were infected with the USA300 JE2 expressing green fluorescent protein (GFP) and subsequently treated with the compounds in a dose–response manner, along with three reference antibiotics: vancomycin, linezolid, and erythromycin. After 24 h of incubation, bacterial loads were quantified by measuring GFP fluorescence in each well. MIC50 values determined in the H460 infection model (MIC50 ex vivo) were generally higher than those obtained from the in vitro tests, likely due to either limited compound penetration into host cells or reduced antibacterial effect of the compounds against intracellular bacteria (Figure 3, Table 2). […] These findings underscore the potential of compound 6y as a promising lead for further development as a novel antistaphylococcal agent.
To see the ex vivo antimicrobial activity of the compound, the human lung carcinoma cell line H460 (ATCC #HTB-177) was used. The H460 cells were cultured in RPMI 1640 medium with 10% fetal bovine serum (FBS) and in a 96-well microplate at 37 °C and 5% CO2. Cell lines were cultured for 2 days, until they reached full confluence in the well. S. aureus (USA300-containing and pCM29-encoding GFP) was cultured in CAMHB with 10 µg/mL of chloramphenicol, and bacterial cells were harvested. After washing the bacterial cells with phosphate-buffered saline (PBS) and suspending them in RPMI, infected H460 cells with S. aureus (1 × 10^7 CFU) and incubated them for 2.5 h. Samples were washed three times with PBS. Then, cells were treated with gentamicin (50 µg/mL of gentamicin in RPMI) and incubated for 1 h. Samples were washed with PBS, RPMI-containing diluted compounds were added, and then they were incubated at 37 °C in 5% CO2 for 24 h. To detect the Green fluorescent protein (GFP) signal, an Ensight multimode plate reader and Opera Phenix Plus (Revvity, Waltham, MA, USA) were used.
Ex vivo infection model images were generated using the Opera Phenix Plus high-content imaging system. Images were obtained by a confocal microscope with a 20× water objective lens. To detect the bacteria fluorescence signal (GFP), the Alexa 488 channel (488 nm laser/500–550 filter, Thermo Fisher Scientific, Waltham, MA, USA) was used, and the brightfield channel was used for H460 cell images.
Figure 3 Antibacterial activities of 2-(amino)quinazolin-4(3H)-one derivatives in the H460 infection model. H460 cells were infected with S. aureus USA300 JE strain expressing GFP, followed by treatment with serial dilutions of 2-(amino)quinazolin-4(3H)-one derivatives. After incubation at 37 °C for 24 h with 5% CO2, fluorescence signals of the bacteria were detected at 488 nm/510 nm using a multilabel plate reader.

In the next test the test system is S. aureus ATCC25923. The experiment in a line: Broth microdilution dose-response, S. aureus ATCC25923. The format is cell-based, Staphylococcus aureus.
From the text: as §1, §2, §3, §4

From paper PMC12561453, “Synthesis and Structure–Activity Relationship Study of 2-(amino)quinazolin-4(3H)-one Derivatives as Potential Inhibitors of Methicillin-Resistant Staphylococcus aureus (MRSA)” (Antibiotics, 2025) come the findings set out here.

The structures appear in SMILES notation. In brackets after ≈: the same amount, converted by molar mass. Like-named read-outs stand apart in the source and are kept apart here.

As a reminder, the IC50 is the concentration needed to halve the response being measured. In the case of `O=c1[nH]c(Nc2ccc(Cl)cc2)nc2cc(Cl)ccc12` [6v, 7-Chloro-2-((4-chlorophenyl)amino)quinazolin-4(3H)-one], in the test with HepG2 cells (HepG2 cells, 24 h, resazurin), the half-inhibitory concentration (IC50) turned out to be 25.5 µM. The MIC50 is 0.9 to 3 µM (≈ 0.276 to 0.918 µg/mL) in the test with S. aureus USA300 JE2 (Staphylococcus aureus, USA300, USA300 JE2, methicillin-resistant, OD600 after 18–24 h, read-out: USA300 MIC50); 1.7 µM (≈ 0.52 µg/mL) in the test on S. aureus USA300 JE2 (USA300 JE2, methicillin-resistant, OD600 after 18–24 h, read-out: USA300 MIC50); 23.9 µM (≈ 7.32 µg/mL) in test [1]; 2.1 to 4.5 µM (≈ 0.643 to 1.38 µg/mL) in the test on S. aureus ATCC25923 (Staphylococcus aureus, ATCC25923, methicillin-sensitive strain, OD600 after 18–24 h, read-out: ATCC25923 MIC50); 2.7 µM (≈ 0.827 µg/mL) in the test on S. aureus ATCC25923 (methicillin-sensitive strain, OD600 after 18–24 h, read-out: ATCC25923 MIC50).
In the case of `CN[C@H](CC(C)C)C(=O)N[C@H]1C(=O)N[C@@H](CC(N)=O)C(=O)N[C@H]2C(=O)N[C@H]3C(=O)N[C@H](C(=O)N[C@H](C(=O)O)c4cc(O)cc(O)c4-c4cc3ccc4O)[C@H](O)c3ccc(c(Cl)c3)Oc3cc2cc(c3O[C@@H]2O[C@H](CO)[C@@H](O)[C@H](O)[C@H]2O[C@H]2C[C@](C)(N)[C@H](O)[C@H](C)O2)Oc2ccc(cc2Cl)[C@H]1O` [Vancomycin, reference compound], the IC50 in the test on HepG2 cells is more than 100 µM. The MIC50 came to 0.35 µM (≈ 0.507 µg/mL) in the test with S. aureus USA300 JE2 (Staphylococcus aureus, USA300, read-out: USA300 MIC50); 7.7 µM (≈ 11.2 µg/mL) in test [1]; 0.3 µM (≈ 0.435 µg/mL) in the test with S. aureus ATCC25923 (Staphylococcus aureus, ATCC25923, read-out: ATCC25923 MIC50). Also, in test [1] (H460 cells infected with USA300 JE2-GFP, 24 h, GFP fluorescence), the “H460 Assay MIC50 (MIC50 ex vivo)” value stood at 7.7 µM.
